How the values were obtained:
[1] = system: OSM induced STAT3 phosphorylation; assay: Western blot, OSM induced STAT3 phosphorylation; type: cell-based, human
PLK3 = biological target: T1, PLK3 (Homo sapiens, UniProt Q9H4B4); assay: Kinase screening (KINOMESCAN), PLK3; type: binding
T1 construct: purchased KINOMESCAN, San Diego, Calif
Protocol: The potential off-target activity of a representative compound was assessed in a screen against 96 protein and lipid kinases (see FIGS. 56 and 60). The test compound, LY-5, was assessed at 1000 and 5000 nM concentration using in vitro kinase assays. The assays were carried out using standard techniques known to one skilled in the art (KINOMESCAN™, San Diego, Calif.). The data in FIG. 60 show the % inhibition for the tested concentrations of LY-5 in the panel of kinases assessed. The interaction map provides a visualization of the relationship of these inhibition data from FIG. 60 to various kinase families.

STAT5 = assay: Western blot, STAT5 after OSM stimulation; type: cell-based, human; settings: MCF-7; 1 and 2.5 μM; OSM 50 ng/mL
Protocol: (§1) RH30 cells were treated with DMSO, LY-5 (0.25-1 μM) and LY-3 (0.5-2.5 μM) prepared as a 20 mM stock solution in sterile DMSO at 60% to 80% confluence in the presence of 10% FBS for 24 hours. The sarcoma cell line EW8 was treated with DMSO and LY-5 (0.5-2.5 μM) prepared as a 20 mM stock solution in sterile DMSO at 60% to 80% confluence in the presence of 10% FBS for 24 hours. MCF-7 cells and DAOY cells were treated with DMSO, 25-50 ng/ml of IL-6, LY-5 (0.25-1 μM) or LY-3 (0.5-2.5 μM) prepared as a 20 mM stock solution in sterile DMSO, protein expressions of P-STAT3 (Tyr705) and STAT3 were tested. DAOY cells were treated with DMSO, 50 ng/ml of IFN-γ, LY-5 (1-5 μM) prepared as a 20 mM stock solution in sterile DMSO, protein expressions of P-STAT3 (Tyr705) and STAT3 were tested. MCF-7 cells were treated with DMSO, 50 ng/ml of OSM, LY-5 (1-2.5 μM) or LLL12 (1-2.5 μM) prepared as a 20 mM stock solution in sterile DMSO, protein expressions of P-STAT3 (Tyr705), P-STAT1, P-STAT5, P-ERK (T202/Y204), P-AKT, STAT3 and STAT1 were tested.
MCF-7 breast cancer cells were seeded in 10 cm plates and allowed to adhere overnight. The following day, the cells were serum-starved. The cells were then left untreated or were treated with LY-5 and LLL12 (1 μM and 2.5 μM) prepared as a 20 mM stock solution in sterile DMSO or DMSO. […] The cells were harvested after 30 minutes and analyzed by Western blot.

acetyl-STAT3 = assay: Western blot, acetyl-STAT3; type: cell-based, human; settings: 2 h
HUVEC = HUVEC migration assays (wound-healing, Boyden chamber); type: cell-based, human; settings: 300 nM, VEGF 10 ng/ml
Protocol: Endothelial cell (HUVEC) migration was monitored using the wound-healing assay described by Thaloor et al. (Cell Growth Differ. (1998) 9(4):305-12). Briefly, 3×10^4 cells/well were seeded in 24-well plates using M200 medium with LSGS. After cells had attached and formed a monolayer on plate completely, we scraped the cells with same width using yellow tip. After scraped, the cells were washed with PBS and incubated with the medium containing VEGF (10 ng/ml)) with or without LY5 (300 nM). Width was photographed at different time intervals (0 and 24 hours) with a magnification of 40× with a microscopic camera system (Leitz Diavert microscope, Leica, Bensheim; AxioCam, Carl Zeiss, Gottingen, Germany).
HUVECs were grown in M200 containing LSGS until 40-50% confluent. Cells were washed with PBS, trypsinized for 5-10 min, collected with 0.2% FBS and centrifuged at 300 g for 5 min. Cells were then resuspended with 0.2% FBS and counted using a Beckman Coulter Z2. A volume of 400 μl of this mix containing 5×10^5 cells was placed on to Boyden Chambers (8 μm pore) inserts with or without LY5 (300 nM) in 24 well plates with 500 μl of M200. VEGF (R and D Systems) in 1% BSA was added to a final concentration of 10 ng/ml in the lower chambers as a chemo-attractant. Cells were pretreated with antibody for 30 min in suspension, then placed in the chambers and incubated at 37° C. 5% C02 for 18-24 hrs. The Boyden chamber porous membranes were then blotted and fixed with 3.7% formaldehyde containing 0.05% crystal violet for 30 min. After repeated washes with distilled water the membranes were air-dried. […] The remainder of the cells on top of the membrane and within the Boyden chamber, were separately incubated in 80% methanol, shaken at 500 rpm for 30 min, and the extracted dye measured at 570 nm. Migration was quantified using the ratio of the migrated cells over the total cells (migrated plus remaining cells) to determine the fraction of migrating cells in each individual experiment. […]

AKT and ERK 1/2 = assay: Western blot, AKT and ERK1/2 phosphorylation; type: cell-based, human
Protocol: as §1, with “MCF-7 cells were treated with DMSO, 50 ng/ml of OSM, LY-5 (1-2.5 μM) or LLL12 (1-2.5 μM) prepared as a 20 mM stock solution in sterile DMSO, protein expressions of P-STAT3 (Tyr705), P-STAT1, P-STAT5, P-ERK (T202/Y204), P-AKT, STAT3 and STAT1 were tested.” left out
The cells were harvested and lysed in cold radioimmunoprecipitation assay (RIPA) lysis buffer containing […] and phosphatase inhibitor cocktail, and were subjected to SDS-PAGE. […] Membranes were analyzed using Enhanced Chemiluminescence Plus reagents and scanned with the Storm Scanner (Amersham Pharmacia Biotech, Inc., Piscataway, N.J.).
MCF-7 breast cancer cells were seeded in 10 cm plates and allowed to adhere overnight. […] The cells were harvested after 30 minutes and analyzed by Western blot.

T1 sequence (Q9H4B4 whole entry): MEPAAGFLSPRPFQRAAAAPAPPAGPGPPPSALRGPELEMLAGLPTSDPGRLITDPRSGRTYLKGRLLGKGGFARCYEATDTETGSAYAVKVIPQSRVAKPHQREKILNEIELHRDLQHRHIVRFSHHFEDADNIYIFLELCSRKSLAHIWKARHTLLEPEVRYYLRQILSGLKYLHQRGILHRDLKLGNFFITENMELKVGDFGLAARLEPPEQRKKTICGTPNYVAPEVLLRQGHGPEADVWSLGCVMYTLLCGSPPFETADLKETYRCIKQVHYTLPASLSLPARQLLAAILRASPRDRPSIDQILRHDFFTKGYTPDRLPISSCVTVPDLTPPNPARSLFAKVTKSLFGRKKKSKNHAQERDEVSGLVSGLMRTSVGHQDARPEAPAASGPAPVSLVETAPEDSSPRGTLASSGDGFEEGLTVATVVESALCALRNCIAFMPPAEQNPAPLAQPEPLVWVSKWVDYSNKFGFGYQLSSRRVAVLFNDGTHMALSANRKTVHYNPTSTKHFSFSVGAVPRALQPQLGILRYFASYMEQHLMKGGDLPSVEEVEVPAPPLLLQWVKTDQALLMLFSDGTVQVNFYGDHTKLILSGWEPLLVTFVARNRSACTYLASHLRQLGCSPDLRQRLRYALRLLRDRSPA

Q: With `NS(=O)(=O)c1cccc2c1C(=O)C=C(Nc1cccnc1)C2=O` [LY-5, 5,8-dioxo-6-(pyridin-3-ylamino)-5,8-dihydronaphthalene-1-sulfonamide] as the compound, how does the “OSM induced STAT3 phosphorylation” value ([1]; MCF-7, 1-2.5 μM, OSM 50 ng/mL) read?
A: inhibit

Q: And the “OSM induced STAT3 phosphorylation at Y705” value ([1]; SJSA, 0-2.5 μM, 3 h)?
A: inhibits

Q: And the inhibition (PLK3; at 1000 nM)?
A: no inhibition

Q: And the “activity against PLK3” value (PLK3; at 5 μM, FIG. 60)?
A: some activity

Q: What about the inhibition at 5 µM (PLK3; at 5000 nM) of the same compound?
A: 72%

Q: And the “inhibition of STAT5” value (STAT5)?
A: exhibit inhibition

Q: What about the acetyl-STAT3 (acetyl-STAT3; RD2, 0-2.5 μM) of the same compound?
A: decrease in STAT3 phosphorylation and acetyl-STAT3

Q: And the acetyl-STAT3 (acetyl-STAT3; UW288-1 and UW426, 0-5 μM)?
A: inhibits

Q: What about the “VEGF induced HUVEC cell migration (wound width)” value (HUVEC) of the same compound?
A: decreased cell migration

Q: And the “percentage of migration (migrated cells over total cells)” value (HUVEC)?
A: decreased percentage of migration

Q: What about the “VEGF induced HUVEC cell migration (wound width)” value (HUVEC; listed as LY5) of the same compound?
A: significantly blocked

Q: And the “selectivity of phosphorylation inhibition, STAT3 over AKT and ERK 1/2” value (AKT and ERK 1/2; MCF-7, OSM 50 ng/mL)?
A: selectivity inhibit phosphorylation of STAT3 over AKT and ERK 1/2

Q: And the “phosphorylation of the kinase ERK1/2” value (AKT and ERK 1/2; sarcoma cells, FIG. 1-2)?
A: not found to inhibit
